Measurements as given in ChEMBL document CHEMBL1201862, “PubChem BioAssay data set” (2004).
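Growth conditions: 96-well plates. Treatment: test compound, 48 hours, 5 concentrations. Analysis: linear interpolation between bracketing concentrations; unreached endpoints set to highest concentration. GI50 marks 50% less growth.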 Activity calls are given as the source filed them. No stated cut-off is given here; in the data, active = GI50 up to about 1.1 µM and inactive = higher.

Tests used:
Test in all cases: DTP human tumour cell line panel, 48 h
M14 = test system: M14
SK-MEL-28 = test system: SK-MEL-28
NCI-H460 = test system: NCI-H460
SW-620 = test system: SW-620
OVCAR-5 = test system: OVCAR-5
COLO 205 = test system: COLO 205
HOP-92 = test system: HOP-92
SR = test system: SR
MOLT-4 = test system: MOLT-4
NCI-H522 = test system: NCI-H522
ACHN = test system: ACHN
UO-31 = test system: UO-31
HOP-62 = test system: HOP-62
HL-60 = test system: HL-60
LOX IMVI = test system: LOX IMVI
UACC-62 = test system: UACC-62
TK-10 = test system: TK-10

Measured: GI50

N#CC(/C(CCCC(=O)Nc1cccc([N+](=O)[O-])c1)=N\NC(=O)c1c(O)ccc2ccccc12)c1nc2ccccc2s1 (stereo not given)
inactive: M14 26.9 µM | SK-MEL-28 21.5 µM | NCI-H460 13.7 µM | SW-620 44.8 µM | OVCAR-5 37.7 µM | COLO 205 30.1 µM | HOP-92 53.1 µM | SR 17.5 µM | MOLT-4 11.7 µM | NCI-H522 25.8 µM | ACHN 20.7 µM | UO-31 14.3 µM | HOP-62 27.8 µM | HL-60 3.16 µM

COC1(OC)c2ccccc2C2(O)c3ccccc3C(=O)C12 (stereo not given)
inactive: M14 23.9 µM | SK-MEL-28 > 100 µM | LOX IMVI 44.7 µM | NCI-H460 26.4 µM | SW-620 71 µM | UACC-62 13.6 µM | OVCAR-5 > 100 µM | COLO 205 13.4 µM | HOP-92 46.6 µM | SR 22.9 µM | MOLT-4 10.9 µM | NCI-H522 10.2 µM | ACHN 34.1 µM | UO-31 16.4 µM | TK-10 37.3 µM | HL-60 13.5 µM

CCCCCCCCCCCCC/C=C1\C[C@H](O)COC1=O
inactive: M14 15 µM | SK-MEL-28 16.2 µM | NCI-H460 17.3 µM | SW-620 15.4 µM | UACC-62 13.7 µM | OVCAR-5 19.2 µM | HOP-92 11.6 µM | SR 18.6 µM | NCI-H522 17.1 µM | ACHN 15.9 µM | UO-31 18.6 µM | HOP-62 16.6 µM | TK-10 17.6 µM | HL-60 19.8 µM

CC1=CCC[C@@]2(C)C(CC[C@@H]2C(C)/C=C/C(C)C)c2ccc(cc2C(=O)O)C[C@@H](O)CC1 (stereo not given in full)
inactive: M14 16.9 µM | SK-MEL-28 14.7 µM | LOX IMVI 4.55 µM | NCI-H460 7.01 µM | SW-620 14.9 µM | UACC-62 10.9 µM | OVCAR-5 16.4 µM | HOP-92 14.4 µM | SR 13.5 µM | MOLT-4 11.6 µM | NCI-H522 13.5 µM | ACHN 6.37 µM | UO-31 15.7 µM | HOP-62 20 µM | TK-10 12.5 µM | HL-60 9.79 µM

Cc1ccc(S(=O)(=O)N/N=C(\C(=O)Nc2cccc([N+](=O)[O-])c2)c2nc3ccc([N+](=O)[O-])cc3nc2O)cc1
inactive: M14 > 100 µM | SK-MEL-28 > 100 µM | LOX IMVI 10.4 µM | NCI-H460 33.5 µM | SW-620 40.6 µM | UACC-62 25.4 µM | OVCAR-5 46.3 µM | COLO 205 28.2 µM | HOP-92 > 100 µM | SR 34 µM | MOLT-4 24 µM | NCI-H522 5.66 µM | ACHN 13.8 µM | UO-31 9.33 µM | HOP-62 81.8 µM
